Patent publication US20050282743A1, “Molecular interactions in cells” (Arbor Vita Corporation, priority 2001, published 2005)
Ends that are not written are not given here. Peptide text beside a SMILES is read from it. * marks the point of attachment. Biotin = O=C1N[C@H]2[C@H](CS[C@H]2CCCCC(=O)*)N1

target: T1, KIAA0807(S) (PDZ Domain 1) (Homo sapiens, UniProt Q6P0Q8); assay: G' assay and Kd titration, TABLE 12; assay type: binding; conditions: A450 nm class of biotinylated PL peptide bound; 0 in conc columns = peptide 10 uM, protein 5 ug/ml
T1 construct: made in house; host or cells: E. coli (DH5alpha, BL21 or JM109)
T1 sequence (Q6P0Q8 with tags, fused parts or gaps): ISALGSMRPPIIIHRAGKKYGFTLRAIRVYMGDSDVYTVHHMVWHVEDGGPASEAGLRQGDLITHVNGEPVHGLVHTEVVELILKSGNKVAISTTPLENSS
Description: The third column labeled “Peptide Optimal Concentration” in the tables is a number reflective of the binding interaction between the PL protein and PDZ protein. […] The column labeled “Protein Optimal Concentration” refers to the protein concentration used to assay PL interaction (in ug/ml); a ‘0’ is indicative of 5 ug/ml protein concentration; any other value represents the concentration (in ug/ml) used to determine the dissociation constant for a given interaction.
Finally, the seventh column labeled “Classification” is another measure of the level of binding. In particular, it provides an absorbance value at 450 nm which indicates the amount of PL peptide bound to the PDZ protein. The following numerical values have the following meanings: ‘1’—A450 nm 0-1; ‘2’—A450 nm 1-2; ‘3’—A450 nm 2-3; ‘4’—A450 nm 3-4; ‘5’—A450 nm of 4 more than 2× repeated; ‘0’—A450 nm 0, i.e., not found to interact. Thus, higher numbers indicate stronger interactions.
For convenience, the assay conditions described in this section are referred to as the “G′ assay” and the “G″ assay,” with the specific conditions described in the preceding section on G assays being referred to as the “G^0 assay.” The “G′ assay” is identical to the “G^0 assay” except at step (2) the peptide concentration is 10 uM instead of 20 uM.

Classification	Compound
3 (A450 nm 2-3)	QATSRNGHSARQHVVADTEL (Biotin-QATSRNGHSARQHVVADTEL) [CD34]
3 (A450 nm 2-3)	CC(C)C[C@H](NC(=O)CNC(=O)[C@@H](NC(=O)[C@H](CO)NC(=O)[C@H](CC(N)=O)NC(=O)[C@H](Cc1ccccc1)NC(=O)CNC(=O)[C@H](C)NC(=O)[C@H](C)NC(=O)[C@H](Cc1ccccc1)NC(=O)[C@@H](NC(=O)CCCC[C@@H]1SC[C@@H]2NC(=O)N[C@@H]21)[C@@H](C)O)[C@@H](C)O)C(=O)N1CCC[C@H]1C(=O)N[C@@H](Cc1c[nH]cn1)C(=O)N[C@@H](CO)C(=O)N[C@H](C(=O)N[C@H](C(=O)N[C@@H](CCCNC(=N)N)C(=O)N[C@H](C(=O)O)C(C)C)[C@@H](C)O)[C@@H](C)O [Neuroligin] (Biotin-TFAAGFNSTGLPHSTTRV-OH; C-terminus assumed)
4 (A450 nm 3-4)	LASKSAEEGKQIPDSLSTDL (Biotin-LASKSAEEGKQIPDSLSTDL) [Dock2]

Compound	Classification
CC[C@H](C)[C@H](NC(=O)[C@H](CCC(N)=O)NC(=O)CCCC[C@@H]1SC[C@@H]2NC(=O)N[C@@H]21)C(=O)N[C@@H](CO)C(=O)N1CCC[C@H]1C(=O)NCC(=O)NCC(=O)N[C@@H](CC(C)C)C(=O)N[C@@H](CCC(=O)O)C(=O)N1CCC[C@H]1C(=O)N1CCC[C@H]1C(=O)N[C@@H](CO)C(=O)N[C@@H](CCC(=O)O)C(=O)N[C@@H](CCCCN)C(=O)N[C@@H](Cc1c[nH]cn1)C(=O)N[C@@H](Cc1ccccc1)C(=O)N[C@@H](CCCNC(=N)N)C(=O)N[C@@H](CCC(=O)O)C(=O)N[C@H](C(=O)N[C@@H](CCC(=O)O)C(=O)N[C@H](C(=O)O)C(C)C)[C@@H](C)O [Tax]	5 (A450 nm of 4 more than 2× repeated)

target: T2, PDZ protein (GST-PDZ fusion) (Homo sapiens, UniProt Q13424); assay: G' assay (10 uM PL peptide), results of TABLE 7 and TABLE 12; assay type: binding; conditions: PDZ Synt. 1 alpha, PDZ Domain 1
T2 construct: made in house; host or cells: E. coli (DH5alpha, BL21 or JM109)
T2 sequence (Q13424 1-505): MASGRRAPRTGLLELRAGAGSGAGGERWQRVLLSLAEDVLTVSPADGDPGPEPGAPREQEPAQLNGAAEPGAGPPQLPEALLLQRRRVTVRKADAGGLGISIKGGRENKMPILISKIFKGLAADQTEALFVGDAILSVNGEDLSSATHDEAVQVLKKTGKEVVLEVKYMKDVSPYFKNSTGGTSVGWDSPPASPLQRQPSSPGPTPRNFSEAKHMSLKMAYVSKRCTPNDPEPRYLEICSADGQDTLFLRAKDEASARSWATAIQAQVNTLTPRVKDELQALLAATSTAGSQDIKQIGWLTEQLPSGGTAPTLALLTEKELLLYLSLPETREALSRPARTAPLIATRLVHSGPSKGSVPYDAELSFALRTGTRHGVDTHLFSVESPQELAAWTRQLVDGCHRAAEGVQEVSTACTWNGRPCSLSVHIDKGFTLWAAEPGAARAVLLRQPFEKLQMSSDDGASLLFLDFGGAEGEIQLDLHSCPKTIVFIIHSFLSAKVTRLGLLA
Summary of the method: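 Biotinylated PL peptides at 10 uM (vs 20 uM in G^0 assay) bound to GST-PDZ fusions; PDZ protein at 5 ug/ml unless another concentration listed. Bound peptide read as A450 nm, classified 0–5 (0 = A450 0; 5 = A450 >4 repeated).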

Compound	Classification
TQGFPGPATWRRISSLESEV	4 (A450 nm 3-4)
CC(C)C[C@H](NC(=O)[C@H](CCCNC(=N)N)NC(=O)CNC(=O)CNC(=O)[C@H](CCCNC(=N)N)NC(=O)[C@H](C)NC(=O)[C@@H]1CCCN1C(=O)[C@H](CCCNC(=N)N)NC(=O)CNC(=O)CNC(=O)[C@@H](NC(=O)[C@H](C)NC(=O)CCCC[C@@H]1SC[C@@H]2NC(=O)N[C@@H]21)C(C)C)C(=O)N[C@@H](CCC(N)=O)C(=O)NCC(=O)N[C@@H](CCCNC(=N)N)C(=O)N[C@@H](CCCNC(=N)N)C(=O)N[C@@H](CCC(N)=O)C(=O)N[C@H](C(=O)N[C@@H](CCC(N)=O)C(=O)N[C@H](C(=O)O)C(C)C)[C@@H](C)O [HPV E6 58 (modified)] (Biotin-AVGGRPARGGRLQGRRQTQV-OH; C-terminus assumed)	2 (A450 nm 1-2)
CC(C)C[C@H](NC(=O)[C@H](C)NC(=O)[C@H](CO)NC(=O)CNC(=O)[C@@H](NC(=O)CCCC[C@@H]1SC[C@@H]2NC(=O)N[C@@H]21)[C@@H](C)O)C(=O)N[C@@H](CCC(N)=O)C(=O)N[C@@H](C)C(=O)N[C@@H](Cc1c[nH]c2ccccc12)C(=O)N[C@@H](CCCNC(=N)N)C(=O)N[C@@H](Cc1c[nH]cn1)C(=O)N[C@H](C(=O)N[C@@H](CO)C(=O)N[C@@H](CCCNC(=N)N)C(=O)N[C@@H](CCC(N)=O)C(=O)N[C@@H](C)C(=O)N[C@H](C(=O)N[C@@H](CCC(=O)O)C(=O)N[C@@H](CO)C(=O)N[C@H](C(=O)N[C@H](C(=O)O)C(C)C)[C@@H](C)O)[C@@H](C)O)[C@@H](C)O [HPV E6 #66 (modified)] (Biotin-TGSALQAWRHTSRQATESTV-OH; C-terminus assumed)	2 (A450 nm 1-2)
CC[C@H](C)[C@H](NC(=O)[C@H](Cc1c[nH]cn1)NC(=O)[C@H](C)NC(=O)[C@H](C)NC(=O)[C@H](CO)NC(=O)[C@@H]1CCCN1C(=O)[C@H](CCCNC(=N)N)NC(=O)[C@H](CC(=O)O)NC(=O)[C@H](CCCCN)NC(=O)[C@@H]1CCCN1C(=O)[C@H](CC(=O)O)NC(=O)[C@H](CCC(=O)O)NC(=O)CCCC[C@@H]1SC[C@@H]2NC(=O)N[C@@H]21)C(=O)N[C@H](C(=O)N[C@@H](CCC(=O)O)C(=O)N[C@@H](C)C(=O)N[C@@H](CC(C)C)C(=O)N[C@@H](CCC(=O)O)C(=O)N[C@H](C(=O)N[C@@H](CC(=O)O)C(=O)N[C@H](C(=O)O)C(C)C)[C@@H](C)O)C(C)C [PDZ-binding kinase (PBK)] (Biotin-EDPKDRPSAAHIVEALETDV-OH; C-terminus assumed)	1 (A450 nm 0-1)
